The results in this text go back to patent US20240158370A1, “CK1 alpha AND DUAL CK1 alpha / GSPT1 DEGRADING COMPOUNDS” (Innovo Therapeutics, Inc., priority 2022, published 2024).

One assay has as its target GSPT1 (Homo sapiens, UniProt P15170+Q96SW2). As to the kind of experiment: HiBiT degradation assay, GSPT1, Procedure B (Molt 4_hGSPT1_HiBIT cells). In kind it is cell-based. To be noted: six hours. Further details: Molt 4_hGSPT1_HiBIT N-terminus tagged cells were generated using CRISPR technology; endogenous in cells; host or cells: Molt 4 cells, CRISPR-edited. Put shortly:
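CRISPR N-terminal HiBiT-tagged Molt 4 cells at 1×10^6 cells/ml were treated 6 h at 37° C with compounds (10-point, 10 μM to 0.005 μM, 0.1% DMSO). Remaining HiBiT-GSPT1 was read by lytic luminescence; DC50 and Ymin (% remaining) from a 4-parameter fit.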

In a further assay the target is T1, CK1α (Homo sapiens, UniProt P48729+Q96SW2).
T1 construct: CSNK1A1-HiBit KI HEK293(LgBit) Cells; host or cells: HEK293(LgBit) knock-in cells
As to the kind of experiment: HiBiT degradation assay, CK1α, Procedure A. In kind it is cell-based. The following applies: six hours. Put shortly: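 Luminescence from HiBiT lytic detection reports remaining tagged protein after cells sit six hours at 37° C with compound across ten concentrations (10 μM down to 0.005 μM, 0.1% DMSO). A 4-parameter curve fit gives DC50 and Ymin.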
In general terms: The HiBiT peptide binds its large partner to form an active luciferase.

Sequence of GSPT1 (P15170 whole entry): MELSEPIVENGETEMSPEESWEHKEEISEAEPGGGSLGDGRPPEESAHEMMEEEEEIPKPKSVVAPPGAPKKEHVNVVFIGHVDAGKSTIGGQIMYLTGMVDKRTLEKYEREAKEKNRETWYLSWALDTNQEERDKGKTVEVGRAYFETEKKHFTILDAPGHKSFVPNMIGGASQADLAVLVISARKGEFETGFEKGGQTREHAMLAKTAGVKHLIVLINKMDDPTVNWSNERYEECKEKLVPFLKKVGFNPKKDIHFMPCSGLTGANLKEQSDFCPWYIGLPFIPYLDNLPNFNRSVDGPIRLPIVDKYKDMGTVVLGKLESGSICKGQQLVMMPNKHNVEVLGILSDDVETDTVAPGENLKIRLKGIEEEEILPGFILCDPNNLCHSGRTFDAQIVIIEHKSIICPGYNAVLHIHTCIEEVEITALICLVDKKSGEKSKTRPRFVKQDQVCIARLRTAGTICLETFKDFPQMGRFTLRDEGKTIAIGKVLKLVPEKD
Sequence of GSPT1 (Q96SW2 whole entry): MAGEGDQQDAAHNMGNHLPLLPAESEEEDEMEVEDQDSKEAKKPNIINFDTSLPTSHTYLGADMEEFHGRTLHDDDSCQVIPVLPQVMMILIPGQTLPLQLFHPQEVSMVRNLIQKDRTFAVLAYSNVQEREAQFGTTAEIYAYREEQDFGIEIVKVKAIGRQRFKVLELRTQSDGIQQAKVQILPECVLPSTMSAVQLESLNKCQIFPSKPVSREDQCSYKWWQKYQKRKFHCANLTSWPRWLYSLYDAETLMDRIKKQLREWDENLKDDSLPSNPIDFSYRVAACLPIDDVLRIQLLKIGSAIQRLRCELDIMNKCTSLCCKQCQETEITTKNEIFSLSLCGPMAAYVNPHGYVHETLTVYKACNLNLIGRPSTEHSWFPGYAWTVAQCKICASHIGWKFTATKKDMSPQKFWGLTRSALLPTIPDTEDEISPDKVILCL
Sequence of GSPT1 (Q16531 whole entry partner): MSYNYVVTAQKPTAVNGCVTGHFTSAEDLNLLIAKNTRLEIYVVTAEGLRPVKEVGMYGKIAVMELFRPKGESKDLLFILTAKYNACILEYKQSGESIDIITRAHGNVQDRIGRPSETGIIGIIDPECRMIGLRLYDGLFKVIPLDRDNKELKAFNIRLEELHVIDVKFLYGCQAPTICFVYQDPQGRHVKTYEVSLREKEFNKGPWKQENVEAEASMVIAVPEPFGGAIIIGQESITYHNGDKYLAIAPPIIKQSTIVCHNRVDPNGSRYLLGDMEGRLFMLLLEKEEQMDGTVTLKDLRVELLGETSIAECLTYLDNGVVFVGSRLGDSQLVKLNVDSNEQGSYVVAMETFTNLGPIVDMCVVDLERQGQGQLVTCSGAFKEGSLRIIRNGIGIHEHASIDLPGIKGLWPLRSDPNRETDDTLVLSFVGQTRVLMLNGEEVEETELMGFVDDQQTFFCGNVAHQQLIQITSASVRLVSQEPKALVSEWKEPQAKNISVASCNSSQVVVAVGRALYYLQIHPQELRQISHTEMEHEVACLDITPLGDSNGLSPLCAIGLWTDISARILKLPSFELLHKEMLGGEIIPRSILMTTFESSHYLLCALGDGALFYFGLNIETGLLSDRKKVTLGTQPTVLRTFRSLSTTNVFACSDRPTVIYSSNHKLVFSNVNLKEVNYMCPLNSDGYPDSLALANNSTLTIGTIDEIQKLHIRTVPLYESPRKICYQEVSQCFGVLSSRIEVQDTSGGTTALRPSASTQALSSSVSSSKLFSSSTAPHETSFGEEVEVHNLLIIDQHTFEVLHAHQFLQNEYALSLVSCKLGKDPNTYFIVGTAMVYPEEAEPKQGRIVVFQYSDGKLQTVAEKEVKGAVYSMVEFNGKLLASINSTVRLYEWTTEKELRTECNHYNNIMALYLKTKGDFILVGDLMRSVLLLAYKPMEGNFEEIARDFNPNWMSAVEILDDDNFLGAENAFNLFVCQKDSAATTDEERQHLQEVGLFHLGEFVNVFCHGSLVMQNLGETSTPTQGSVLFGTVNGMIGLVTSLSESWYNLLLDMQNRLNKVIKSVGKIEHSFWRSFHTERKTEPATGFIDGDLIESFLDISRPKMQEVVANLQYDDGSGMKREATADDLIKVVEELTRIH
T1 sequence (P48729 whole entry): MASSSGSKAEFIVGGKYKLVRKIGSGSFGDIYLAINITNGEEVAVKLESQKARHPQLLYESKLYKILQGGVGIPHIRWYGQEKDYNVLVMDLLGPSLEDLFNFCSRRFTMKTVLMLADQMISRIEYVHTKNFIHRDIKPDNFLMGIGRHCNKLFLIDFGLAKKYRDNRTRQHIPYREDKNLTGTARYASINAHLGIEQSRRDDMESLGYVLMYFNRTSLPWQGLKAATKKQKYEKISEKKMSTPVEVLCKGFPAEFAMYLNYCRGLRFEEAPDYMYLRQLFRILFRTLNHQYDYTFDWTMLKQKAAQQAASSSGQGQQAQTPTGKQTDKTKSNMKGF
T1 sequence (Q96SW2 whole entry): as the sequence (Q96SW2 whole entry) above
T1 sequence (Q16531 whole entry partner): as the sequence (Q16531 whole entry partner) above

As for `Cn1cc(-c2ccc3c(c2)CN(C2CCC(=O)NC2=O)C3=O)nc1-c1c[nH]c2ncccc12` (stereo not shown) [Example 662], on GSPT1, the DC50 (commonly the midpoint of the concentration-degradation curve) was at least 25 nM and the “GSPT1 Ymin” value is given as “F (F = >75-100% remaining)”. Moreover, at CK1α, the “CK1α Ymin” value is recorded as “E (E = >25-75% remaining)” and the half-maximal degradation concentration (DC50) is under 25 nM.
Consider `Cn1nc(-c2ccc3c(c2)CN(C2CCC(=O)NC2=O)C3=O)nc1N1CCOCC1` (stereo not shown) [Example 602, 3-(5-(1-methyl-5-morpholino-1H-1,2,4-triazol-3-yl)-1-oxoisoindolin-2-yl)piperidine-2,6-dione], for which, at GSPT1, the DC50 was at least 25 nM and the “GSPT1 Ymin” value is “F (F = >75-100% remaining)”. For the same compound, on CK1α, the “CK1α Ymin” value is “E (E = >25-75% remaining)” and the DC50 was under 25 nM.
On to `Cn1cc(-c2ccc3c(c2)CN(C2CCC(=O)NC2=O)C3=O)nc1-c1cccc(CO)c1` (stereo not shown) [Example 636], for which, at GSPT1, the 50% degradation concentration (DC50) was at least 25 nM and the “GSPT1 Ymin” value is given as “F (F = >75-100% remaining)”. For the same compound, at CK1α, the “CK1α Ymin” value is recorded as “C (C = 0-10% remaining)” and the DC50 was at least 25 nM.
Turning to `Cc1cccc(-c2nc(-c3ccc4c(c3)CN(C3CCC(=O)NC3=O)C4=O)cn2C)c1C` (stereo not shown) [Example 650], at GSPT1, the DC50 is under 25 nM and the “GSPT1 Ymin” value is on record as “F (F = >75-100% remaining)”. On CK1α, the “CK1α Ymin” value was “D (D = >10- 25% remaining)” and the DC50 was under 25 nM.
`Cn1cc(-c2ccc3c(c2)CN(C2CCC(=O)NC2=O)C3=O)nc1[C@H]1CC[C@H](C)CC1` (stereo partly shown) [Example 715, 3-(5-(1-Methyl-2-((1r,4r)-4-methylcyclohexyl)-1H-imidazol-4-yl)-1-oxoisoindolin-2-yl)piperidine-2,6-dione]: at GSPT1, the DC50 is under 25 nM and the “GSPT1 Ymin” value is “E (E = >25-75% remaining)”. Moreover, at CK1α, the “CK1α Ymin” value was “D (D = >10- 25% remaining)” and the 50% degradation concentration (DC50) was under 25 nM.
As for `Cc1ccc(N)cc1-c1nc(-c2ccc3c(c2)CN(C2CCC(=O)NC2=O)C3=O)cn1C` (stereo not shown) [Example 674], on GSPT1, the 50% degradation concentration (DC50) was at least 25 nM and the “GSPT1 Ymin” value was “F (F = >75-100% remaining)”. For the same compound, at CK1α, the “CK1α Ymin” value is given as “E (E = >25-75% remaining)” and the DC50 was under 25 nM.
Regarding `Cn1cc(-c2ccc3c(c2)CN(C2CCC(=O)NC2=O)C3=O)nc1-c1ccccc1N` (stereo not shown) [Example 634], at GSPT1, the DC50 is at least 25 nM and the “GSPT1 Ymin” value is recorded as “E (E = >25-75% remaining)”. Further, on CK1α, the “CK1α Ymin” value is listed as “C (C = 0-10% remaining)” and the DC50 is under 25 nM.
The corresponding values for `Cn1cc(-c2ccc3c(c2)CN(C2CCC(=O)NC2=O)C3=O)nc1-c1ccc2ccccc2c1` (stereo not shown) [Example 652] are under 25 nM, “F (F = >75-100% remaining)”, “D (D = >10- 25% remaining)” and under 25 nM.
On to `Cn1cc(-c2ccc3c(c2)CN(C2CCC(=O)NC2=O)C3=O)nc1-c1cccc(Cl)c1` (stereo not shown) [Example 635], for which, at GSPT1, the DC50 is at least 25 nM and the “GSPT1 Ymin” value is recorded as “F (F = >75-100% remaining)”. For the same compound, at CK1α, the “CK1α Ymin” value is “C (C = 0-10% remaining)” and the DC50 was under 25 nM.
In the case of `Cn1cc2cc(-c3nc(-c4ccc5c(c4)CN(C4CCC(=O)NC4=O)C5=O)cn3C)ccc2n1` (stereo not shown) [Example 682], on GSPT1, the 50% degradation concentration (DC50) is under 25 nM and the “GSPT1 Ymin” value was “F (F = >75-100% remaining)”. Moreover, at CK1α, the “CK1α Ymin” value was “C (C = 0-10% remaining)” and the DC50 was under 25 nM.
`Cn1cc(-c2ccc3c(c2)CN(C2CCC(=O)NC2=O)C3=O)nc1-c1ccccc1F` (stereo not shown) [Example 656]: on GSPT1, the DC50 is at least 25 nM and the “GSPT1 Ymin” value is “F (F = >75-100% remaining)”. At CK1α, the “CK1α Ymin” value was “E (E = >25-75% remaining)” and the DC50 is under 25 nM.
On the same counts, the results for `Cn1cc(-c2ccc3c(c2)CN(C2CCC(=O)NC2=O)C3=O)nc1-c1ccc2c(c1)OCO2` (stereo not shown) [Example 680] are at least 25 nM, “E (E = >25-75% remaining)”, “C (C = 0-10% remaining)” and under 25 nM.
For the compound `Cn1cc(-c2ccc3c(c2)CN(C2CCC(=O)NC2=O)C3=O)nc1-c1cccs1` (stereo not shown) [Example 646], at GSPT1, the DC50 was at least 25 nM and the “GSPT1 Ymin” value is “F (F = >75-100% remaining)”. Also, on CK1α, the “CK1α Ymin” value was “C (C = 0-10% remaining)” and the 50% degradation concentration (DC50) was under 25 nM.
`Cn1cc(-c2ccc3c(c2)CN(C2CCC(=O)NC2=O)C3=O)nc1-c1cc(F)ccc1Cl` (stereo not shown) [Example 725]: at GSPT1, the 50% degradation concentration (DC50) is at least 25 nM and the “GSPT1 Ymin” value is “F (F = >75-100% remaining)”. In addition, on CK1α, the “CK1α Ymin” value was “C (C = 0-10% remaining)” and the DC50 is under 25 nM.
On to `Cn1cc(-c2ccc3c(c2)CN(C2CCC(=O)NC2=O)C3=O)nc1-c1cccc(F)c1` (stereo not shown) [Example 631], for which, on GSPT1, the DC50 is at least 25 nM and the “GSPT1 Ymin” value is given as “F (F = >75-100% remaining)”. Also, at CK1α, the “CK1α Ymin” value is reported as “C (C = 0-10% remaining)” and the DC50 was under 25 nM.
On to `COc1cc(Cl)ccc1-c1nc(-c2ccc3c(c2)CN(C2CCC(=O)NC2=O)C3=O)cn1C` (stereo not shown) [Example 638], for which, at GSPT1, the DC50 was under 25 nM and the “GSPT1 Ymin” value is reported as “F (F = >75-100% remaining)”. Besides, on CK1α, the “CK1α Ymin” value is reported as “C (C = 0-10% remaining)” and the DC50 was under 25 nM.
For the compound `Cn1cc(-c2ccc3c(c2)CN(C2CCC(=O)NC2=O)C3=O)nc1-c1cccc(F)c1F` (stereo not shown) [Example 724], at GSPT1, the DC50 was at least 25 nM and the “GSPT1 Ymin” value is reported as “F (F = >75-100% remaining)”. At CK1α, the “CK1α Ymin” value is given as “C (C = 0-10% remaining)” and the DC50 was under 25 nM.
As for `Cn1cc(-c2ccc3c(c2)CN(C2CCC(=O)NC2=O)C3=O)nc1-c1ccc(C#N)cc1F` (stereo not shown) [Example 654], on GSPT1, the DC50 is under 25 nM and the “GSPT1 Ymin” value was “F (F = >75-100% remaining)”. On CK1α, the “CK1α Ymin” value is “D (D = >10- 25% remaining)” and the DC50 is under 25 nM.
For `Cc1cccc(F)c1-c1nc(-c2ccc3c(c2)CN(C2CCC(=O)NC2=O)C3=O)cn1C` (stereo not shown) [Example 651], at GSPT1, the DC50 was under 25 nM and the “GSPT1 Ymin” value is recorded as “E (E = >25-75% remaining)”. Moreover, on CK1α, the “CK1α Ymin” value is given as “D (D = >10- 25% remaining)” and the DC50 was under 25 nM.
For `CCCCc1ccc(-c2nc(-c3ccc4c(c3)CN(C3CCC(=O)NC3=O)C4=O)cn2C)s1` (stereo not shown) [Example 687], on GSPT1, the DC50 is under 25 nM and the “GSPT1 Ymin” value is recorded as “F (F = >75-100% remaining)”. Besides, at CK1α, the “CK1α Ymin” value is recorded as “D (D = >10- 25% remaining)” and the DC50 is under 25 nM.
Take `Cn1cc(-c2ccc3c(c2)CN(C2CCC(=O)NC2=O)C3=O)nc1-c1cccc(O)c1` (stereo not shown) [Example 642]: on GSPT1, the DC50 is under 25 nM and the “GSPT1 Ymin” value is recorded as “E (E = >25-75% remaining)”. At CK1α, the “CK1α Ymin” value is reported as “C (C = 0-10% remaining)” and the DC50 is at least 25 nM.
As for `Cn1cc(-c2ccc3c(c2)CN(C2CCC(=O)NC2=O)C3=O)nc1-c1ccc(N2CCOCC2)cc1` (stereo not shown) [Example 666], on GSPT1, the DC50 is at least 25 nM and the “GSPT1 Ymin” value was “F (F = >75-100% remaining)”. Also, at CK1α, the “CK1α Ymin” value is recorded as “E (E = >25-75% remaining)” and the DC50 was under 25 nM.
On the same counts, the results for `Cn1cc(-c2ccc3c(c2)CN(C2CCC(=O)NC2=O)C3=O)nc1[C@H]1[C@@H]2COC[C@@H]21` (stereo partly drawn) [Example 716, 3-(5-(2-((1R,5S,6s)-3-oxabicyclo[3.1.0]hexan-6-yl)-1-methyl-1H-imidazol-4-yl)-1-oxoisoindolin-2-yl)piperidine-2,6-dione] are at least 25 nM, “F (F = >75-100% remaining)”, “E (E = >25-75% remaining)” and under 25 nM.
For `C[C@@H]1CCCCN1c1nc(-c2ccc3c(c2)CN(C2CCC(=O)NC2=O)C3=O)nn1C` (stereo partly drawn) [Example 709, 3-(5-(1-methyl-5-((R)-2-methylpiperidin-1-yl)-1H-1,2,4-triazol-3-yl)-1-oxoisoindolin-2-yl)piperidine-2,6-dione], on GSPT1, the DC50 is at least 25 nM and the “GSPT1 Ymin” value is listed as “F (F = >75-100% remaining)”. Further, at CK1α, the “CK1α Ymin” value is listed as “D (D = >10- 25% remaining)” and the DC50 was under 25 nM.
`Cn1ncc(-c2ccc3c(c2)CN(C2CCC(=O)NC2=O)C3=O)c1C1CCC(F)(F)CC1` (stereo not shown) [Example 699]: at GSPT1, the DC50 was at least 25 nM and the “GSPT1 Ymin” value is on record as “F (F = >75-100% remaining)”. On CK1α, the “CK1α Ymin” value is listed as “F (F = >75-100% remaining)” and the DC50 was at least 25 nM.
For `Cn1nc(-c2ccc3c(c2)CN(C2CCC(=O)NC2=O)C3=O)nc1N1CCC(C(F)(F)F)CC1` (stereo not shown) [Example 707, 3-(5-(1-methyl-5-(4-(trifluoromethyl)piperidin-1-yl)-1H-1,2,4-triazol-3-yl)-1-oxoisoindolin-2-yl)piperidine-2,6-dione], at GSPT1, the DC50 was at least 25 nM and the “GSPT1 Ymin” value was “F (F = >75-100% remaining)”. In addition, on CK1α, the “CK1α Ymin” value is “D (D = >10- 25% remaining)” and the DC50 is under 25 nM.
On the same counts, the results for `Cn1cc(-c2ccc3c(c2)CN(C2CCC(=O)NC2=O)C3=O)nc1-c1ccc2c(c1)CCC(=O)N2` (stereo not shown) [Example 678] are under 25 nM, “F (F = >75-100% remaining)”, “E (E = >25-75% remaining)” and at least 25 nM.
Consider `Cn1cc(-c2ccc3c(c2)CN(C2CCC(=O)NC2=O)C3=O)nc1-c1ccccc1O` (stereo not shown) [Example 624], for which, at GSPT1, the DC50 is under 25 nM and the “GSPT1 Ymin” value is given as “F (F = >75-100% remaining)”. At CK1α, the “CK1α Ymin” value is recorded as “C (C = 0-10% remaining)” and the 50% degradation concentration (DC50) is under 25 nM.
